Laboratory results taken from publication PMC6423584, “New sesquiterpenoids from the South China Sea soft corals Clavularia viridis and Lemnalia flava” (Beilstein Journal of Organic Chemistry, 2019).

Columns and labels:
[1] = tested on: NF-κB signaling pathway in stable HEK293/NF-κB cells; test: NF-κB signaling pathway inhibitory activity assay (luciferase reporter, TNF-α stimulation); format: cell-based; details: Homo sapiens, luciferase read after 6 h
Method: NF-κB signaling pathway inhibitory activity was evaluated according to the previously reported protocol. Stable HEK293/NF-κB cells were plated into 384-well plates at a concentration of approximate 2500 cells per well. After culturing overnight, compounds were added to the medium at a final concentration of 0.1 μg/mL. HEK293/NF-κB cells were seeded into 96-well cell culture plates (Corning, NY, USA) and allowed to grow for 24 h. The cells were then treated with compounds, followed by stimulation with TNF-α. 6 h later, the luciferase substrate was added to each well, and the released luciferin signal was detected using an EnVision microplate reader. The IC50 was calculated with Prism 4 software (Graphpad, San Diego, CA) from the nonlinear curve fitting of the percentage of inhibition (% inhibition) versus the inhibitor concentration [I] by using the following equation: % inhibition = 100/(1 + [IC50/[I]]^k), where k is the Hill coefficient.

[2] = biological target: T1, recombinant PTP1B catalytic domain (Homo sapiens, UniProt P18031); test: PTP1B inhibitory activity assay (pNPP hydrolysis); format: biochemical; details: pNPP substrate, 30 °C, pH 6.5; IC50 ≥ 50 μM was considered inactive
T1 construct: The recombinant PTP1B catalytic domain was expressed and purified according to a previous report; made in house
T1 sequence (P18031 3-277 limits assumed): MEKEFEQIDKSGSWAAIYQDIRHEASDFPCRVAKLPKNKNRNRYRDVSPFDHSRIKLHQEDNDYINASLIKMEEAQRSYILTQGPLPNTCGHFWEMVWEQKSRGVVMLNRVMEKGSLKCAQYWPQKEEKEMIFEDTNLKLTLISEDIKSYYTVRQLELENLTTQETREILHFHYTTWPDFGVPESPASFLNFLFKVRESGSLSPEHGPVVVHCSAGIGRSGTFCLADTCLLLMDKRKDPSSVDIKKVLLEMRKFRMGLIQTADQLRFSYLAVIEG
Method: The recombinant PTP1B catalytic domain was expressed and purified according to a previous report. The enzymatic activities of the PTP1B catalytic domain were determined at 30 °C by monitoring the hydrolysis of pNPP. Dephosphorylation of pNPP generated the product pNP, which was monitored at an absorbance of 405 nm with an EnVision multilabel plate reader (Perkin–Elmer Life Sciences, Boston, MA). In a typical […] assay mixture containing 50 mmol/L 3-morpholinopropanesulfonic acid, pH 6.5, 2 mmol/L pNPP, and 30 nmol/L recombinant PTP1B, activities were continuously monitored and the initial rate of hydrolysis was determined by using the early linear region of the enzymatic reaction kinetic curve.

IC50 [2] [µM] | IC50 (μM) PTP1B [2] | Structure (SMILES) | IC50 [1] [µM]
> 50 | inactive | Cc1ccc(C2(C)CCC(=CBr)C2C)c(O)c1 (stereo not drawn) [compound 3, ent-laurenisol] | –
15.6 | – | Cc1cc(O)c(C2(C)CCC(=CBr)C2C)cc1Br (stereo not shown) [compound 4, clalaurenol B] | 7.3
> 50 | – | Cc1cc(Br)c([C@]2(C)CC=CC2(C)C)cc1O [compound 5, cupalaurenol] | –
> 50 | – | C=C1CC[C@H]2[C@@H]([C@H]3[C@@H](C)CC[C@@]13O)C2(C)C [compound 7, 1-hydroxyalloaromadendrene] | –
> 50 | – | C/C1=C\CC(C)(C)/C=C/C[C@@]2(C)O[C@@H]2CC1 [compound 8, humulene epoxide II] | –

The remaining lines, values behind:

Structure (SMILES) | IC50 [2] [µM] | IC50 (μM) PTP1B [2] | IC50 [1] [µM]
CC(C)C[C@H](NC(=O)[C@H](Cc1ccccc1)NC(=O)c1cnccn1)B(O)O [bortezomib, reference compound] | – | – | 14
Cc1cc(Br)c(C2(C)CCC(=CBr)C2C)cc1O (stereo not shown) [compound 1, isobromolaurenisol] | 18.8 | – | 19.9
C=C1CCC(C)(c2cc(O)c(C)cc2Br)C1C (stereo not shown) [compound 2, clalaurenol A] | 21.8 | – | 6.8
C=C1CCC2C(C3C(C)CCC13O)C2(C)C (stereo not shown) [compound 6, claaromadendrene] | > 50 | – | –
